Measured values from paper PMC6848146, “Binding and structural analyses of potent inhibitors of the human Ca^2+/calmodulin dependent protein kinase kinase 2 (CAMKK2) identified from a collection of commercially-available kinase inhibitors” (Scientific Reports, 2019).
Read-outs that look alike come from different tables or passages of the source. Marks after values point to notes of the source that are not given here. Each block holds one compound with its values, some of them ahead of it.

Assays:
[1] = biological target: T1, CAMKK2-KD (kinase domain of CAMKK2) (Homo sapiens, UniProt Q96RR4); experiment: DSF thermal-shift screen, 384-well format; assay type: binding; conditions: 10 µM compound, 1 µM kinase, 0.1% DMSO, single measurement
T1 construct: the protein kinase domain (amino acids 161–449); hexahistidine (6xHis), TEV-cleavable; made in house
Description: (§1) We employed a thermal-shift assay (Differential Scanning Fluorimetry, DSF)[19] to identify compounds that can bind to the kinase domain of CAMKK2 (CAMKK2-KD). Protein thermal denaturation curves (Fig. 1A,B) were used to calculate the denaturation midpoint temperature (Tm) for the kinase domain of CAMKK2 in the presence of ligands or vehicle only (DMSO). […] DSF screens were performed on purified CAMKK2-KD using a library of commercially available, chemically diverse, ATP-competitive, kinase inhibitors.
DSF experiments in 384-well format followed a protocol previously established at the SGC-UNICAMP and described elsewhere.
The compounds, previously solubilized in DMSO, were used at 10 µM final concentration and 0.1% DMSO. Plates were sealed using optically clear films and transferred to a QuantStudio 6 qPCR instrument (Applied Biosystems). […] Protein in 0.1% DMSO was used as a reference.
(§2) For both formats, experiments were performed in singlets.

[2] = biological target: T2, CAMKK2-FL (Homo sapiens, UniProt Q96RR4); experiment: Radiometric enzymatic assay (Eurofins Discovery), Ca2+/Calmodulin present; assay type: biochemical; conditions: for IC50: 90 µM ATP, single measurement
T2 construct: an enzymatic assay using the full-length protein (CAMKK2-FL); purchased Eurofins Discovery (MO, USA), assay service

[3] = biological target: T3, CAMKK1-FL (Homo sapiens, UniProt Q8N5S9); experiment: as above; assay type: biochemical; conditions: 200 µM ATP; single measurement
T3 construct: purchased Eurofins Discovery (MO, USA), assay service
Description: All compounds employed in this study were initially developed to target other human protein kinases, and some are known to be quite promiscuous[18],[21].
Reaction conditions for assays using CAMKK1-FL were: 8 mM MOPS pH 7.0, 0.2 mM EDTA, 0.33 mg/mL MBP (myelin basic protein), 0.5 mM calcium chloride, 0.016 mg/ml calmodulin, 10 mM magnesium acetate and [gamma-^33P-ATP] (200 µM). […] The reactions were initiated by the addition of a Mg^2+-ATP mixture. After incubation for 40 minutes at room temperature, the reaction was stopped by the addition of phosphoric acid to a final concentration of 0.5%. […] Following subtraction of the average inhibitor control well counts, results were expressed as a percentage of the mean kinase activity in the positive control sample.

[4] = biological target: CAMKK2-KD (Homo sapiens, UniProt Q96RR4); experiment: Isothermal titration calorimetry (reverse titration); conditions: 20 °C
Description: All ITC experiments described below were performed twice.
Measurements were made using a MicroCal AutoITC200 (Malvern, United Kingdom). […] Small molecule inhibitors were diluted in dialysis buffer. All ITC experiments were performed using a “reverse titration” setup in which the protein (in the syringe) was titrated into the cell containing the inhibitor. Two independent ITC measurements were performed for each compound, data for individual runs were integrated separately to obtain single isotherms, which were plotted and analyzed using Sedphat[37]. […] All measurements were made at 20 °C with mixing (1,000 rpm stirring), and used 1.5 µL injections and 180 s between each injection. NITPIC, SEDPHAT and GUSSI[37] were used to analyze and generate figures for ITC data.

[5] = biological target: T1, CAMKK2-KD (kinase domain of CAMKK2); experiment: DSF thermal-shift screen, 96-well format; assay type: binding; conditions: for ΔTm at 12 µM: read-out: ΔTm
Description: as §1
SYPRO Orange dye (Invitrogen) was used in 5X as final concentration.
Plates were sealed using optically clear films and transferred to an Mx3005p RT-PCR machine (Agilent).
as §2

[6] = individual ITC experiment, run 1
[7] = individual ITC experiment, run 2
[8] = 96-well format, 12 µM compound, 2 µM kinase, 2.5% DMSO, single measurement

Sequence of CAMKK2-KD (Q96RR4 161-449): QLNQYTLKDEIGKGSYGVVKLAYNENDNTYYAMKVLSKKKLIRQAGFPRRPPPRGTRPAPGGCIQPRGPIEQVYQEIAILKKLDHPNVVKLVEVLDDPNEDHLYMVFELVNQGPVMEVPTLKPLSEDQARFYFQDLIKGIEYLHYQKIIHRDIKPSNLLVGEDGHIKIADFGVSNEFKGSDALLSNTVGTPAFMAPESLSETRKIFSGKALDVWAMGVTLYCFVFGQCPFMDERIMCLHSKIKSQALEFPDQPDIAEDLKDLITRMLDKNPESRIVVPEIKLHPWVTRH
T1 sequence (Q96RR4 161-449): as above

- ΔTm [1]: 4.7 °C
Compound: Cc1[nH]nc2ccc(-c3cncc(OC[C@@H](N)Cc4ccccc4)c3)cc12 [A-674563]

- ΔTm [1]: 11.2^d °C
- fold more active towards CAMKK2-FL than CAMKK1-FL ([2]; from IC50 values of Table 1): ~ 10 fold
- IC50 [3]: 182 nM
- ΔH Run 1 [4, 6]: -43.0 kJ/mol
- ΔG Run 2 [4, 7]: -45.7 kJ/mol
- ΔH Run 2 [4, 7]: -40.7 kJ/mol
- Kd ([4]; read-out: ITC KD, serial integrations of two independent experiments): 2 nM
- Kd ([4]; read-out: KD Run 1, individual ITC experiment, run 1): 2.5 nM
- Kd ([4]; read-out: KD Run 2, individual ITC experiment, run 2): 2 nM
Compound: COc1cc(N2CCC(N(C)C)CC2)ccc1Nc1ncc(Cl)c(Nc2ccccc2P(C)(C)=O)n1 [ALK-IN-1]

- ΔTm at 10 µM [1]: 4.3 °C
Compound: Cc1cc(Nc2nc(N[C@@H](C)c3ccc(F)cc3)c(C#N)cc2F)[nH]n1 [AZ 960]

- ΔTm [1]: 9.3 °C
Compound: COc1cc(N2CCC(N)CC2)ccc1Nc1ncc(Cl)c(-c2c[nH]c3ccccc23)n1 [AZD3463]

- ΔTm at 10 µM [1]: 4.1 °C
Compound: C=CC(=O)Nc1cc(Nc2nccc(-c3cn(C)c4ccccc34)n2)c(OC)cc1N(C)CCN(C)C [AZD9291]

- ΔTm [5, 8]: 4.3 °C
Compound: Nc1nc(Nc2ccc(S(N)(=O)=O)cc2)nn1C(=O)c1c(F)cccc1F [Aurora/Cdk Inhibitor]

- ΔTm at 10 µM [1]: 6 °C
- IC50 [2]: 44 nM
- IC50 [3]: 87 nM
Compound: CC[C@@H]1C(=O)N(C)c2cnc(Nc3ccc(C(=O)N[C@H]4CC[C@H](N5CCN(CC6CC6)CC5)CC4)cc3OC)nc2N1C(C)C [BI 6727, Volasertib]

- ΔTm [5, 8]: 8.1 °C
Compound: Cn1cc(C2=C(c3cn(CCCSC(=N)N)c4ccccc34)C(=O)NC2=O)c2ccccc21 [BIM IX]

- ΔTm [5, 8]: 7.2^e °C
- IC50 [3]: 2590 nM
Compound: CN(C)CCCn1cc(C2=C(c3c[nH]c4ccccc34)C(=O)NC2=O)c2ccccc21 [BIM I]

- ΔTm at 10 µM [1]: 4.7 °C
Compound: CCOc1ccn(-c2ccc(F)cc2)c(=O)c1C(=O)Nc1ccc(Oc2ccnc(N)c2Cl)c(F)c1 [BMS-777607]

- ΔTm at 10 µM [1]: 5.1 °C
Compound: O=C(NCCCNc1nc(Nc2cccc(NC(=O)N3CCCC3)c2)ncc1I)c1cccs1 [BX-795]

Compound: COc1cc2c(Nc3cc(Cl)c(OC)c(Cl)c3)c(C#N)cnc2cc1OCCCN1CCN(C)CC1 [Bosutinib isomer]
- ΔTm [5, 8]: 4.1 °C

- ΔTm [1]: 4.7 °C
Compound: Cc1cc(CN2CCN(c3c(Br)cnc4nc(-c5ccc(N6CCN(C)CC6)cc5)[nH]c34)CC2)no1 [CCT137690]

- ΔTm [5, 8]: 4.4 °C
Compound: O=C1NCCCc2c1oc1ccc(O)cc21 [CID 755673]

- ΔTm at 10 µM [1]: 4.4 °C
Compound: C=CC(=O)Nc1cccc(Nc2nc(Nc3ccc(N4CCN(C(C)=O)CC4)cc3OC)ncc2C(F)(F)F)c1 [CO-1686]

- ΔTm at 10 µM [1]: 4.4 °C
Compound: Cc1nc(N)sc1-c1ccnc(Nc2ccc(N3CCOCC3)cc2)n1 [CYC116]

- ΔTm at 10 µM [1]: 4.3 °C
Compound: N#CCNC(=O)c1ccc(-c2ccnc(Nc3ccc(N4CCOCC4)cc3)n2)cc1 [CYT387]

- ΔTm at 10 µM [1]: 10.6 °C
- IC50 [2]: 21 nM
- IC50 [3]: 82 nM
Compound: CC1(COc2ccc3c(c2)ncn3-c2ccc3cccc(N4CCC(N)CC4)c3n2)COC1 [Crenolanib (CP-868596), Crenolanib]

- ΔTm at 10 µM [1]: 5.1 °C
Compound: CO[C@@H](C(=O)N1Cc2n[nH]c(NC(=O)c3ccc(N4CCN(C)CC4)cc3)c2C1)c1ccccc1 [Danusertib]

- ΔTm at 12 µM [5, 8]: 6.9 °C
Compound: CN1CCN(c2ccc3nc(-c4c(N)c5c(F)cccc5[nH]c4=O)[nH]c3c2)CC1 [Dovitinib]

- ΔTm [5, 8]: 7.5 °C
Compound: c1ccc(-c2cnc(Nc3ccc(OCCN4CCCC4)cc3)s2)cc1 [Flt3 Inhibitor III]

- ΔTm at 10 µM [1]: 6.3 °C
- IC50 [2]: 1300 nM
Compound: COc1cc2c(Oc3ccc(NC(=O)C4(C(=O)Nc5ccc(F)cc5)CC4)cc3F)ccnc2cc1OCCCN1CCOCC1 [Foretinib]

- ΔTm [1]: 6.4 °C
Compound: CNc1nc(Nc2cnn([C@H]3CCN(C4COC4)C[C@@H]3F)c2Cl)ncc1C(F)(F)F [GNE-9605]

- ΔTm at 10 µM [1]: 16.2 °C
- ΔG Run 1 [4, 6]: -46.2 kJ/mol
- ΔH Run 1 [4, 6]: -87.5 kJ/mol
- ΔG Run 2 [4, 7]: -45.8 kJ/mol
- ΔH Run 2 [4, 7]: -79.1 kJ/mol
Compound: O=C(O)c1ccc(-c2c[nH]c3ncc(-c4ccccc4)cc23)cc1C1CCCC1 [GSK650394]

- ΔTm at 12 µM [5, 8]: 4.9 °C
Compound: C[C@@H](Oc1cc(-n2cnc3ccc(OC[C@@H](O)CO)cc32)sc1C(N)=O)c1ccccc1Cl [GSK978744A]

- ΔTm at 10 µM [1]: 4.4 °C
Compound: O=C1NC(=O)/C(=C/c2ccc3nccc(-c4ccncc4)c3c2)S1 [GSK1059615]

Compound: CN(c1ccc(NC(=O)Nc2ccc(OC(F)(F)F)cc2)cc1)c1ccnc(Nc2cccc(S(N)(=O)=O)c2)n1 [GW806742X]
- ΔTm at 12 µM [5]: 5.8 °C

- ΔTm [1]: 4.2 °C
Compound: CCOC(=O)c1cnc2ccc(-c3cncc(NS(=O)(=O)c4ccccc4)c3)cn12 [HS-173]

- ΔTm at 10 µM [1]: 7.3 °C
Compound: CCS(=O)(=O)Nc1ccc2c(c1)/C(=C(/Nc1ccc(CN3CCCCC3)cc1)c1ccccc1)C(=O)N2 [Hesperadin]

- ΔTm [5, 8]: 6.8 °C
Compound: O=C(c1ccc(Nc2nccc(-c3cc4ccccc4s3)n2)cc1)N1CCC(N2CCCC2)CC1 [IKK 16]

- ΔTm [5, 8]: 5.4 °C
Compound: O=C1Nc2ccccc2/C1=C1/Nc2ccccc2/C1=N\O [Indirubin-3monoxime]

- ΔTm [5, 8]: 6.8 °C
Compound: O=C1c2ccccc2-c2n[nH]c3cccc1c23 [JNK Inhibitor II]

Compound: COC(=O)[C@@]1(O)C[C@H]2O[C@]1(C)n1c3ccccc3c3c4c(c5c6ccccc6n2c5c31)C(=O)NC4 [K252a]
- ΔTm [5, 8]: 18.3^e °C
- IC50 [2]: 50 nM
- IC50 [3]: 51 nM

- ΔTm at 10 µM [1]: 8 °C
Compound: Cc1cc(Nc2ncc(Cl)c(Nc3ccccc3S(=O)(=O)C(C)C)n2)c(OC(C)C)cc1C1CCNCC1 [LDK378]

- ΔTm at 10 µM [1]: 4.3 °C
Compound: Cc1cc(Nc2cc(CN3CCOCC3)c3nc(C)c(Cc4ccc(Cl)cc4F)n3n2)n[nH]1 [LY2784544]

- ΔTm at 10 µM [1]: 6.2 °C
Compound: CCN1CCN(Cc2ccc(Nc3ncc(F)c(-c4cc(F)c5nc(C)n(C(C)C)c5c4)n3)nc2)CC1 [LY2835219]

- ΔTm at 10 µM [1]: 7 °C
Compound: CNC(=O)c1nn(C)c2c1C(C)(C)Cc1cnc(Nc3ccc(N4CCN(C)CC4)cc3)nc1-2 [Milciclib (PHA-848125), Milciclib]

- ΔTm [5, 8]: 6.8 °C
Compound: CC(C)n1cnc2c(Nc3cccc(Cl)c3)nc(NCCO)nc21 [NG 52 (Compound 52)]

- ΔTm [1]: 4.2 °C
Compound: CN(c1ncccc1CNc1nc(Nc2ccc3c(c2)CC(=O)N3)ncc1C(F)(F)F)S(C)(=O)=O [PF-562271]

- ΔTm [1]: 4.5 °C
Compound: CS(=O)(=O)c1cccc(CNc2nc(Nc3ccc4c(c3)CCC(=O)N4)ncc2C(F)(F)F)c1 [PF-573228]

- ΔTm at 10 µM [1]: 4.4 °C
Compound: Cc1nc(Nc2[nH]nc3c2CN(C(=O)N[C@H](CN(C)C)c2ccccc2)C3(C)C)c2sccc2n1 [PF-3758309]

- ΔTm at 10 µM [1]: 4.9 °C
Compound: Cc1[nH]c(/C=C2\C(=O)Nc3ccc(S(=O)(=O)Cc4c(Cl)cccc4Cl)cc32)c(C)c1C(=O)N1CCC[C@@H]1CN1CCCC1 [PHA-665752]

- ΔTm [1]: 7.2 °C
Compound: Cc1ccc([N+](=O)[O-])cc1S(=O)(=O)N(C)/N=C/c1cnc2ccc(Br)cn12 [PIK-75]

- ΔTm at 10 µM [1]: 7.8 °C
Compound: C1=C/COCc2cc(ccc2OCCN2CCCC2)Nc2nccc(n2)-c2cccc(c2)COC/1 [Pacritinib (SB1518), Pacritinib]

- ΔTm at 10 µM [1]: 4.8 °C
Compound: CCOc1cc2ncc(C#N)c(Nc3ccc(F)c(Cl)c3)c2cc1NC(=O)/C=C/CN(C)C [Pelitinib]

- ΔTm at 12 µM [5, 8]: 4.6 °C
Compound: c1nc2nc(Nc3ccc(N4CCOCC4)cc3)nc(NC3CCCCC3)c2[nH]1 [Reversine]

- ΔTm [1]: 4.5 °C
Compound: COc1cc(C(=O)NC2CCN(C)CC2)ccc1Nc1ncc2c(n1)N(C1CCCC1)CC(F)(F)C(=O)N2C [Ro3280]

- ΔTm at 12 µM [5, 8]: 5 °C
Compound: COc1ccc2c(c1)/C(=C/c1cnc[nH]1)C(=O)N2 [SU9516]

- ΔTm [5, 8]: 9.4 °C
Compound: Cn1cc(/C=C2\C(=O)Nc3ccc(S(N)(=O)=O)cc32)c2ccccc21 [Syk Inhibitor]

- ΔTm [1]: 7.5^d °C
- IC50 [3]: 395 nM
Compound: CNC(=O)c1ccccc1Nc1nc(Nc2ccc(N3CCOCC3)cc2OC)ncc1Cl [TAE226]

- ΔTm at 12 µM [5, 8]: 16.3 °C
Compound: COc1cc(N2CCC(N3CCN(C)CC3)CC2)ccc1Nc1ncc(Cl)c(Nc2ccccc2S(=O)(=O)C(C)C)n1 [TAE684]

- ΔTm at 10 µM [1]: 4.7 °C
Compound: CCS(=O)(=O)c1cccc(-c2cc(C(=O)NC3CCN(C)CC3)c(C)c3[nH]c4ncc(C)cc4c23)c1 [TAK-901]

- ΔTm [1]: 4.8 °C
Compound: C=CC(=O)Nc1cccc(Sc2nc(Nc3ccc(N4CCN(C)CC4)cc3)ncc2Cl)c1 [WZ8040]

Compound: JAK Inhibitor I
- ΔTm [5, 8]: 4.7 °C
